Source: patent US20060084135A1, “Compositions for manipulating the lifespan and stress response of cells and organisms” (priority 2003, published 2006)
Several values for one entry are separate records, joined by “and”; a condition that tells them apart may be missing. Equal entries are not always repeated. Structures can show the parent of a compound that is named as a salt. Where two headings read alike, the source gives them in different places. Each block holds one compound with its values, some of them ahead of it.

Tests used:
[1] = Stability in solution (decay of SIRT1 fold-stimulation of aged stock); type: physicochemical; conditions: ethanol stock solution; ethanol stock 2.5 mM, room temperature, glass vials, nitrogen; assayed at 50 μM; read-out: Stability in Solution t1/2 (converted)
Text: The fold-stimulation (ratio to control) obtained with a compound diluted from an aged stock solution was compared to an identical dilution from a stock solution freshly prepared from the solid compound. “t1/2” is defined as the time required for the SIRT1 fold-stimulation of the compound from the aged solution to decay to one-half of that obtained from a freshly prepared solution. […] Stocks were aged by storage at room […] temperature, in glass vials, under a nitrogen atmosphere.

S. cerevisiae = test: Yeast replicative lifespan; type: cell-based; conditions: 10 μM; for % change in yeast replicative lifespan relative to untreated organisms: 2% glucose YPD, untreated = 100%
Method: Average lifespan was determined for wild type untreated (□), quercetin (◯) and piceatannol (●).

recombinant human SIRT1 = target: T1, recombinant human SIRT1 (Homo sapiens, UniProt Q96EB6); test: SIRT1 fluorescent deacetylation assay (p53-382 acetylated peptide substrate); type: biochemical
T1 sequence (Q96EB6 1-747): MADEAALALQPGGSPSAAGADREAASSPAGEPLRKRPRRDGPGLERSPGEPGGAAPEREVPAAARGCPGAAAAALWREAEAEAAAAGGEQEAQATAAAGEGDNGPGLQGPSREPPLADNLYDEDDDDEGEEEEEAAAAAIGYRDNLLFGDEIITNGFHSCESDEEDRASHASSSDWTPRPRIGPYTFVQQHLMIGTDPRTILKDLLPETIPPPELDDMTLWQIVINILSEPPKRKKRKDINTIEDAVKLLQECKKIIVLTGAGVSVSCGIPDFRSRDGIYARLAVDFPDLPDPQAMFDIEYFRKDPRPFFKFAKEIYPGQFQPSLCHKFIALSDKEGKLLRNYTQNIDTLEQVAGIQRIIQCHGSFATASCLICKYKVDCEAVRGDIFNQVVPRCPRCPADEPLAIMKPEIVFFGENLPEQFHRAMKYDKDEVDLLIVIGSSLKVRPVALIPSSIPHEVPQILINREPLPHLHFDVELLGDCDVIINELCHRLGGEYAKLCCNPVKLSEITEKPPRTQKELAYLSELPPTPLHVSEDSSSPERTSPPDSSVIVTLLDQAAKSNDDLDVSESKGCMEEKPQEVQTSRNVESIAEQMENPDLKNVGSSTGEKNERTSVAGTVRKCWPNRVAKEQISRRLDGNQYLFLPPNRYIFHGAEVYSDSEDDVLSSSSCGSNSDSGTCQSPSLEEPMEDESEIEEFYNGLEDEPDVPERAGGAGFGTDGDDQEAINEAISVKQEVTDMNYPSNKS

C. elegans (strain N2) = test: C. elegans lifespan; type: in vivo; conditions: N2 worms, untreated = 100%
Method: Thus, the presence of resveratrol in the growth media of C. elegans extends their lifespan.
The effect of some of these compounds on lifespan was determined in yeast, C. elegans and D. melanogaster, as described above.

[2] = Table 9, resveratrol analogs, 100 μM, 25 μM NAD+, 25 μM p53-382 acetylated peptide
[3] = Table 11, resveratrol analogs, 100 μM, 25 μM NAD+, 25 μM p53-382 acetylated peptide
[4] = Supplementary Table 2, flavones part I, 100 μM, 25 μM NAD+, 25 μM p53-382 acetylated peptide
[5] = Table 1, 100 μM compound, 25 μM NAD+, 25 μM p53-382 acetylated peptide
[6] = Supplementary Table 6, free radical protective compounds, 100 μM, 25 μM NAD+, 25 μM p53-382 acetylated peptide
[7] = Supplementary Table 3, flavones part II, 100 μM, 25 μM NAD+, 25 μM p53-382 acetylated peptide
[8] = Supplementary Table 8, compound at 100 μM, 25 μM NAD+, 25 μM p53-382 acetylated peptide
[9] = Supplementary Table 7, miscellaneous compounds, 100 μM, 25 μM NAD+, 25 μM p53-382 acetylated peptide
[10] = Supplementary Table 1, stilbenes and chalcones, 100 μM, 25 μM NAD+, 25 μM p53-382 acetylated peptide

half-life at 50 µM [1]: 2.75 days | Ratio to Control Rate Mean ± SE (recombinant human SIRT1; [2]): 8.20 ± 0.69
Compound: Oc1cc(O)cc(/C=C/c2ccc(F)cc2)c1 [BML-212, 3,5-Dihydroxy-4′-fluoro-trans-stilbene]
% change in yeast replicative lifespan relative to untreated organisms (S. cerevisiae): 98%

Ratio to Control Rate Mean ± SE (recombinant human SIRT1; [2]): 10.6 ± 0.4
Compound: Oc1cc(O)cc(/C=C/c2ccc(Cl)cc2)c1 [BML-217, 3,5-Dihydroxy-4′-chloro-trans-stilbene]
% change in yeast replicative lifespan relative to untreated organisms (S. cerevisiae): 90%

Compound: CC(=O)Oc1ccc(/C=C/c2cc(O)cc(O)c2)cc1 [BML-221, 3,5-Dihydroxy-4′-acetoxy-trans-stilbene]
half-life [1]: 21 days | % change in yeast replicative lifespan relative to untreated organisms (S. cerevisiae): 165% | % change in C. elegans lifespan relative to untreated organisms (C. elegans (strain N2); 100/500 μM, E. coli as food): >100% (ongoing) | Ratio to Control Rate Mean ± SE (recombinant human SIRT1; [3]): 3.05 ± 0.54

Compound: COc1ccc(/C=C/c2cc(O)cc(O)c2)cc1 [BML-233, 3,5-Dihydroxy-4′-methoxy-trans-stilbene]
% change in C. elegans lifespan relative to untreated organisms (C. elegans (strain N2); (10) printed in the cell): 70% (10) | % change in C. elegans lifespan relative to untreated organisms (C. elegans (strain N2); (500) printed in the cell): 50% (500) | Ratio to Control Rate Mean ± SE (recombinant human SIRT1): 5.48 ± 0.33

Ratio to Control Rate Mean ± SE (recombinant human SIRT1; [4]): 6.58 | Ratio to Control Rate Mean ± SE (recombinant human SIRT1; [5]): 6.58 ± 0.69
Compound: O=c1c(O)c(-c2ccc(O)c(O)c2)oc2cc(O)ccc12 [Fisetin, 3,7,3′,4′-Tetrahydroxyflavone]
Effect on maximum lifespan (S. cerevisiae; wild type): significantly increased | Increase of average lifespan (S. cerevisiae; wild type): 55%

Ratio to Control Rate Mean ± SE (recombinant human SIRT1; [6]): 1.150 ± 0.090
Compound: Cl.O.O=C(O)CN(CCN(CC(=O)O)Cc1ccccc1O)Cc1ccccc1O [HBED, N,N′-Di-(2-hydroxybenzyl)ethylenediamine-N,N′-diacetic acid.HCl.H2O, reference compound]

Ratio to Control Rate Mean ± SE (recombinant human SIRT1; [6]): 2.48 ± 0.15
Compound: CC(C)c1cccc(=O)c(O)c1 [Hinokitiol, 2-hydroxy-4-isopropyl-2,4,6-cycloheptatrien-1-one]

Ratio to Control Rate Mean ± SE (recombinant human SIRT1; [4]): 3.55 ± 0.56
Compound: O=c1c(O)c(-c2ccc(O)cc2)oc2cc(O)cc(O)c12 [Kaempferol, 3,5,7,4′-Tetrahydroxyflavone]

Compound: C[N+](C)(C)[C@@H](Cc1c[nH]c(=S)[nH]1)C(=O)[O-] [L-(+)-Ergothioneine, (S)-a-Carboxy-2,3-dihydro-N,N,N-trimethyl-2-thioxo-1H-imidazole-4-ethanaminium inner salt]
Ratio to Control Rate Mean ± SE (recombinant human SIRT1; [6]): 2.06 ± 0.48

Ratio to Control Rate Mean ± SE (recombinant human SIRT1; [4]): 5.66 ± 0.80
Compound: O=c1cc(-c2ccc(O)c(O)c2)oc2cc(O)cc(O)c12 [Luteolin, 5,7,3′,4′-Tetrahydroxyflavone]

Ratio to Control Rate Mean ± SE (recombinant human SIRT1; [6]): 1.2513 ± 0.0080
Compound: CC1=NN(c2ccccc2)C(=O)C1 [MCI-186, 3-Methyl-1-phenyl-2-pyrazolin-5-one, reference compound]

Ratio to Control Rate Mean ± SE (recombinant human SIRT1; [7]): 1.461 ± 0.071
Compound: O=c1c(O)c(-c2ccc(O)cc2O)oc2cc(O)cc(O)c12 [Morin, 3,5,7,2′,4′-Pentahydroxyflavone]

Ratio to Control Rate Mean ± SE (recombinant human SIRT1; [7]): 0.898 ± 0.070
Compound: O=c1c(O)c(-c2cc(O)c(O)c(O)c2)oc2cc(O)cc(O)c12 [Myricetin, 3,5,7,3′,4′,5′-Hexahydroxyflavone]

Ratio to Control Rate Mean ± SE (recombinant human SIRT1; [8]): 1.738 ± 0.088
Compound: CC(Cc1ccc(O)c(O)c1)C(C)Cc1ccc(O)c(O)c1 (stereo not shown) [NDGA]

Compound: O=C(Nc1cccc(C(=O)Nc2ccc(S(=O)(=O)O)c3cc(S(=O)(=O)O)cc(S(=O)(=O)O)c23)c1)Nc1cccc(C(=O)Nc2ccc(S(=O)(=O)O)c3cc(S(=O)(=O)O)cc(S(=O)(=O)O)c23)c1 [NF023, reference compound]
Ratio to Control Rate Mean ± SE (recombinant human SIRT1; [9]): −0.0016

Compound: O=C(Nc1ccc(C(=O)Nc2ccc(C(=O)Nc3ccc(S(=O)(=O)O)c4cc(S(=O)(=O)O)cc(S(=O)(=O)O)c34)cc2)cc1)Nc1ccc(C(=O)Nc2ccc(C(=O)Nc3ccc(S(=O)(=O)O)c4cc(S(=O)(=O)O)cc(S(=O)(=O)O)c34)cc2)cc1 [NF279, reference compound]
Ratio to Control Rate Mean ± SE (recombinant human SIRT1; [9]): 0.0035

Ratio to Control Rate Mean ± SE (recombinant human SIRT1; Supplementary Table 4, isoflavones, flavanones, anthocyanidins, 100 μM, 25 μM NAD+, 25 μM p53-382 acetylated peptide): 2.10 ± 0.23
Compound: O=C1CC(c2ccc(O)cc2)Oc2cc(O)cc(O)c21 (stereo not shown) [Naringenin, 5,7,4′-Trihydroxyflavanone]

SIRT1 Vmax decrease (recombinant human SIRT1; 50 μM nicotinamide, absence of resveratrol, NAD+ or p53-382 peptide varied): 30% and 36% | Ratio to Control Rate Mean ± SE (recombinant human SIRT1; [9]): 0.428
Compound: NC(=O)c1cccnc1 [Nicotinamide, reference compound]

Compound: Oc1ccc(-c2[o+]c3cc(O)cc(O)c3cc2O)cc1.[Cl-] [Pelargonidin chloride, 3,5,7.4′-Tetrahydroxyflavylium chloride]
Ratio to Control Rate Mean ± SE (recombinant human SIRT1): 1.586

Ratio to Control Rate Mean ± SE (recombinant human SIRT1; [10]): 7.90 ± 0.50 | Ratio to Control Rate Mean ± SE (recombinant human SIRT1; [5]): 7.90 ± 0.50 | Stimulation of SIRT1 activity (recombinant human SIRT1; initial library screen): eight-fold
Compound: Oc1cc(O)cc(/C=C/c2ccc(O)c(O)c2)c1 [Piceatannol, 3,5,3′,4′-Tetrahydroxy-trans-stilbene]
Effect on lifespan (S. cerevisiae; wild type): no significant effect

Ratio to Control Rate Mean ± SE (recombinant human SIRT1; [2]): 9.95 ± 0.45
Compound: Oc1cc(O)cc(/C=C/c2ccccc2)c1 [Pinosylvin, 3,5-Dihydroxy-trans-stilbene]
% change in yeast replicative lifespan relative to untreated organisms (S. cerevisiae): 114%

Ratio to Control Rate Mean ± SE (recombinant human SIRT1; [4]): 4.59 ± 0.47 | Ratio to Control Rate Mean ± SE (recombinant human SIRT1; [5]): 4.59 ± 0.47
Compound: O=c1c(O)c(-c2ccc(O)c(O)c2)oc2cc(O)cc(O)c12 [Quercetin, 3,5,7,3′,4′-Pentahydroxyflavone]
Effect on lifespan (S. cerevisiae; wild type): no significant effect

Ratio to Control Rate Mean ± SE (recombinant human SIRT1; [3]): 4.060 ± 0.069
Compound: COc1ccc(/C=C/c2cc(O)cc(O)c2)cc1O [Rhapontin aglycone, 3,5,3′Trihydroxy-4′-methoxy-trans-stilbene]

Ratio to Control Rate Mean ± SE (recombinant human SIRT1; [10]): 1.40 ± 0.37
Compound: COc1ccc(/C=C/c2cc(O)cc(O[C@@H]3O[C@H](CO)[C@@H](O)[C@H](O)[C@H]3O)c2)cc1O [Rhapontin, 3,3′,5-Trihydroxy-4′-methoxystilbene 3-O-β-D-glucoside]

Ratio to Control Rate Mean ± SE (recombinant human SIRT1; Supplementary Table 8, compound concentration not given, 25 μM NAD+, 25 μM p53-382 acetylated peptide): 0.069 ± 0.028
Compound: CCCCCCCCCCCCC/C=C/[C@@H](O)[C@@H](N)CO [Sphingosine]

Compound: Cc1ccc(C(=O)Nc2ccc(S(=O)(=O)O)c3cc(S(=O)(=O)O)cc(S(=O)(=O)O)c23)cc1NC(=O)c1cccc(NC(=O)Nc2cccc(C(=O)Nc3cc(C(=O)Nc4ccc(S(=O)(=O)O)c5cc(S(=O)(=O)O)cc(S(=O)(=O)O)c45)ccc3C)c2)c1 [Suramin, reference compound]
Ratio to Control Rate Mean ± SE (recombinant human SIRT1): −0.0002

Ratio to Control Rate Mean ± SE (recombinant human SIRT1; [6]): 0.995 ± 0.019
Compound: Cc1c(C)c2c(c(C)c1O)CCC(C)(C(=O)O)O2 (stereo not shown) [Trolox, 6-Hydroxy-2,5,7,8-tetramethylchroman-2-carboxylic acid, reference compound]

Compound: Cc1ccc(NC(=O)c2cccc(N(C)C)c2)cc1NC(=O)c1ccc(O)cc1 [ZM 336372, reference compound]
Ratio to Control Rate Mean ± SE (recombinant human SIRT1; [8]): 3.5 ± 1.1

Ratio to Control Rate Mean ± SE (recombinant human SIRT1; [10]): 1.14 ± 0.29
Compound: C(=C/c1ccccc1)/c1ccccc1 [cis-Stilbene]

Ratio to Control Rate Mean ± SE (recombinant human SIRT1; [10]): 1.48 ± 0.15
Compound: C(=C\c1ccccc1)/c1ccccc1 [trans-Stilbene]

Compound: Camptothecin [reference compound]
Ratio to Control Rate Mean ± SE (recombinant human SIRT1; Supplementary Table 8, compound at 10 μM, 25 μM NAD+, 25 μM p53-382 acetylated peptide): 2.92 ± 0.41
